Assay results from patent US20230295234A1, “ANTIMICROBIAL PEPTIDOMIMETICS” (SPEXIS AG, priority 2020, published 2023).
Bridge positions count the residues as written; N and C are the ends. Square brackets hold non-standard residues; d marks the D form. Peptide text beside a SMILES is read from it. * marks the point of attachment. Pro(4R-NH2) = N[C@H]1CN[C@H](C(=O)O)C1; X2 = N=C(N)N1C[C@H](O)C[C@H]1C(=O)*; Gly(N-2-aminoethyl) = NCCNCC(=O)O; Gly(N(CH2)3NH2) = NCCCNCC(=O)O; Pen = CC(C)(S)[C@H](N)C(=O)O; dDab = NCC[C@@H](N)C(=O)O; Dab = NCC[C@H](N)C(=O)O; Nlys = NCCCCNCC(=O)O

How the values were obtained:
[1] = test system: Escherichia coli ATCC 25922; conditions: ATCC 25922
How it was run: (§1)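 Standardized inocula (0.5 McFarland in saline, then diluted in MHII broth to approximately 5×10^5 CFU/mL) were exposed to two-fold dilution series of each peptide in the presence of polysorbate 80 (0.002% final).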

[2] = test system: Escherichia coli MCR-1 Af 45; conditions: MCR-1 Af 45
How it was run: as §1

[3] = test system: Klebsiella pneumoniae SSI3010; conditions: SSI3010
How it was run: as §1

[4] = test system: human red blood cells (hRBC); assay: Hemolysis of human red blood cells; type: cell-based; conditions: red cells of human, 1 h
How it was run: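 Percent hemolysis is OD540 of peptide-treated supernatant relative to water-lysed cells. Each peptide was tested at 200 μg/mL against 20% (v/v) washed human erythrocytes. Incubation was 1 h at 37 °C, 300 rpm.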

SMILES: CC[C@H](C)[C@H](NC(=O)CN(CCN)C(=O)[C@@H](NC(=O)[C@@H]1CCCN1)C(C)C)C(=O)N[C@H](C(=O)N[C@@H](Cc1ccc(O)cc1)C(=O)N[C@@H]1C(=O)N[C@@H](CC(N)=O)C(=O)N[C@@H](CCCNC(=N)N)C(=O)N[C@@H](CCN)C(=O)N[C@@H]([C@@H](C)O)C(=O)N[C@H](CCN)C(=O)N[C@@H](CCCCN)C(=O)N[C@H](C(=O)N[C@@H](CCN)C(=O)N[C@@H](CCCNC(=N)N)C(=O)N[C@@H](Cc2ccc(O)cc2)C(=O)O)CSSC1(C)C)[C@@H](C)CC [Example 28, Pro-Val-Ndab-Ile-Ile-Tyr-Pen-Asn-Arg-Dab-Thr-^DDab-Lys-Cys-Dab-Arg-Tyr] (HELM PEPTIDE1{P.V.[NCCN(CC(=O)[*:2])[*:1]].I.I.Y.[Pen].N.R.[Dab].T.[NCC[C@@H](N[*:1])C(=O)[*:2]].K.C.[Dab].R.Y}$PEPTIDE1,PEPTIDE1,7:R3-14:R3$$$V2.0)
- Escherichia coli ATCC 25922 MIC [1]: 0.25 mg/L
- Escherichia coli MCR-1 Af 45 MIC [2]: 0.125 mg/L
- Klebsiella pneumoniae SSI3010 MIC [3]: 0.125 mg/L
- Hemolysis at 0.2 g/L [4]: 0%

SMILES: CC[C@H](C)[C@H](NC(=O)CN(CCN)C(=O)[C@@H](NC(=O)CNCCN)C(C)C)C(=O)N[C@H](C(=O)N[C@@H](Cc1ccc(O)cc1)C(=O)N[C@@H]1C(=O)N[C@@H](CC(N)=O)C(=O)N[C@@H](CCCNC(=N)N)C(=O)N[C@@H](CCN)C(=O)N[C@@H]([C@@H](C)O)C(=O)N[C@H](CCN)C(=O)N[C@@H](CCCCN)C(=O)N[C@H](C(=O)N[C@@H](CCN)C(=O)N[C@@H](CCCNC(=N)N)C(=O)N[C@@H](Cc2ccc(O)cc2)C(=O)O)CSSC1(C)C)[C@@H](C)CC [Example 29, Ndab-Val-Ndab-Ile-Ile-Tyr-Pen-Asn-Arg-Dab-Thr-^DDab-Lys-Cys-Dab-Arg-Tyr] (H-[Gly(N-2-aminoethyl)]V[Gly(N-2-aminoethyl)]IIY[Pen]NR[Dab]T[dDab]KC[Dab]RY-OH; disulfide 7-14)
- Escherichia coli ATCC 25922 MIC [1]: 0.25 mg/L
- Escherichia coli MCR-1 Af 45 MIC [2]: 0.25 mg/L
- Klebsiella pneumoniae SSI3010 MIC [3]: 0.25 mg/L
- Hemolysis at 0.2 g/L [4]: 0%

SMILES: CC[C@H](C)[C@H](NC(=O)[C@@H](NC(=O)[C@@H]1CCCN1C(=O)[C@@H](NC(=O)CNC)C(C)C)[C@@H](C)CC)C(=O)N[C@@H](Cc1ccc(O)cc1)C(=O)N[C@H]1CSSC[C@@H](C(=O)N[C@@H](CCN)C(=O)N[C@@H](CCCNC(=N)N)C(=O)N[C@@H](Cc2ccc(O)cc2)C(=O)O)NC(=O)[C@H](CCCCN)NC(=O)[C@@H](CCN)NC(=O)[C@H]([C@@H](C)O)NC(=O)[C@H](CCN)NC(=O)[C@H](CCCNC(=N)N)NC(=O)[C@H](CC(N)=O)NC1=O [Example 30] (HELM PEPTIDE1{[Sar].V.P.I.I.Y.C.N.R.[Dab].T.[NCC[C@@H](N[*:1])C(=O)[*:2]].K.C.[Dab].R.Y}$PEPTIDE1,PEPTIDE1,7:R3-14:R3$$$V2.0)
- Escherichia coli ATCC 25922 MIC [1]: 0.125 mg/L
- Escherichia coli MCR-1 Af 45 MIC [2]: 0.125 mg/L
- Klebsiella pneumoniae SSI3010 MIC [3]: 0.25 mg/L
- Hemolysis at 0.2 g/L [4]: 0%

SMILES: CC[C@H](C)[C@H](NC(=O)CN(CCCCN)C(=O)[C@@H](NC(=O)CNCCCCN)C(C)C)C(=O)N[C@H](C(=O)N[C@@H](Cc1ccc(O)cc1)C(=O)N[C@@H]1C(=O)N[C@@H](CC(N)=O)C(=O)N[C@@H](CCCNC(=N)N)C(=O)N[C@@H](CCN)C(=O)N[C@@H]([C@@H](C)O)C(=O)N[C@H](CCN)C(=O)N[C@@H](CCCCN)C(=O)N[C@H](C(=O)N[C@@H](CCN)C(=O)N[C@@H](CCCNC(=N)N)C(=O)N[C@@H](Cc2ccc(O)cc2)C(=O)O)CSSC1(C)C)[C@@H](C)CC [Example 31, Nlys-Val-Nlys-Ile-Ile-Tyr-Pen-Asn-Arg-Dab-Thr-^DDab-Lys-Cys-Dab-Arg-Tyr] (H-[Nlys]V[Nlys]IIY[Pen]NR[Dab]T[dDab]KC[Dab]RY-OH; disulfide 7-14)
- Escherichia coli ATCC 25922 MIC [1]: 0.125 mg/L
- Escherichia coli MCR-1 Af 45 MIC [2]: 0.0625 mg/L
- Klebsiella pneumoniae SSI3010 MIC [3]: 0.25 mg/L
- Hemolysis at 0.2 g/L [4]: 0%

SMILES: CC[C@H](C)[C@H](NC(=O)CN(CCCN)C(=O)[C@@H](NC(=O)CNCCCN)C(C)C)C(=O)N[C@H](C(=O)N[C@@H](Cc1ccc(O)cc1)C(=O)N[C@@H]1C(=O)N[C@@H](CC(N)=O)C(=O)N[C@@H](CCCNC(=N)N)C(=O)N[C@@H](CCN)C(=O)N[C@@H]([C@@H](C)O)C(=O)N[C@H](CCN)C(=O)N[C@@H](CCCCN)C(=O)N[C@H](C(=O)N[C@@H](CCN)C(=O)N[C@@H](CCCNC(=N)N)C(=O)N[C@@H](Cc2ccc(O)cc2)C(=O)O)CSSC1(C)C)[C@@H](C)CC [Example 32, Norn-Val-Norn-Ile-Ile-Tyr-Pen-Asn-Arg-Dab-Thr-^DDab-Lys-Cys-Dab-Arg-Tyr] (H-[Gly(N(CH2)3NH2)]V[Gly(N(CH2)3NH2)]IIY[Pen]NR[Dab]T[dDab]KC[Dab]RY-OH; disulfide 7-14)
- Escherichia coli ATCC 25922 MIC [1]: 0.125 mg/L
- Escherichia coli MCR-1 Af 45 MIC [2]: 0.0625 mg/L
- Klebsiella pneumoniae SSI3010 MIC [3]: 0.125 mg/L
- Hemolysis at 0.2 g/L [4]: 0%

SMILES: CC[C@H](C)[C@H](NC(=O)[C@@H]1C[C@@H](O)CN1C(=O)[C@@H](NC(=O)CNCCCN)C(C)C)C(=O)N[C@H](C(=O)N[C@@H](Cc1ccc(O)cc1)C(=O)N[C@@H]1C(=O)N[C@@H](CC(N)=O)C(=O)N[C@@H](CCCNC(=N)N)C(=O)N[C@@H](CCN)C(=O)N[C@@H]([C@@H](C)O)C(=O)N[C@H](CCN)C(=O)N[C@@H](CCCCN)C(=O)N[C@H](C(=O)N[C@@H](CCN)C(=O)N[C@@H](CCCNC(=N)N)C(=O)N[C@@H](Cc2ccc(O)cc2)C(=O)O)CSSC1(C)C)[C@@H](C)O [Example 33, Norn-Val-Hyp-Ile-Thr-Tyr-Pen-Asn-Arg-Dab-Thr-^DDab-Lys-Cys-Dab-Arg-Tyr] (HELM PEPTIDE1{[NCCCNCC(=O)[*:2]].V.[Hyp].I.T.Y.[Pen].N.R.[Dab].T.[NCC[C@@H](N[*:1])C(=O)[*:2]].K.C.[Dab].R.Y}$PEPTIDE1,PEPTIDE1,7:R3-14:R3$$$V2.0)
- Escherichia coli ATCC 25922 MIC [1]: 0.125 mg/L
- Escherichia coli MCR-1 Af 45 MIC [2]: 0.125 mg/L
- Klebsiella pneumoniae SSI3010 MIC [3]: 0.25 mg/L
- Hemolysis at 0.2 g/L [4]: 0%

SMILES: CC[C@H](C)[C@H](NC(=O)[C@@H]1C[C@@H](O)CN1C(=O)[C@@H](NC(=O)CNCCCCN)C(C)C)C(=O)N[C@H](C(=O)N[C@@H](Cc1ccc(O)cc1)C(=O)N[C@@H]1C(=O)N[C@@H](CC(N)=O)C(=O)N[C@@H](CCCNC(=N)N)C(=O)N[C@@H](CCN)C(=O)N[C@@H]([C@@H](C)O)C(=O)N[C@H](CCN)C(=O)N[C@@H](CCCCN)C(=O)N[C@H](C(=O)N[C@@H](CCN)C(=O)N[C@@H](CCCNC(=N)N)C(=O)N[C@@H](Cc2ccc(O)cc2)C(=O)O)CSSC1(C)C)[C@@H](C)O [Example 34, Nlys-Val-Hyp-Ile-Thr-Tyr-Pen-Asn-Arg-Dab-Thr-^DDab-Lys-Cys-Dab-Arg-Tyr] (HELM PEPTIDE1{[NCCCCNCC(=O)[*:2]].V.[Hyp].I.T.Y.[Pen].N.R.[Dab].T.[NCC[C@@H](N[*:1])C(=O)[*:2]].K.C.[Dab].R.Y}$PEPTIDE1,PEPTIDE1,7:R3-14:R3$$$V2.0)
- Escherichia coli ATCC 25922 MIC [1]: 0.125 mg/L
- Escherichia coli MCR-1 Af 45 MIC [2]: 0.125 mg/L
- Klebsiella pneumoniae SSI3010 MIC [3]: 0.125 mg/L
- Hemolysis at 0.2 g/L [4]: 0%

SMILES: CC[C@H](C)[C@H](NC(=O)[C@@H]1C[C@@H](O)CN1C(=O)[C@@H](NC(=O)[C@@H]1C[C@@H](O)CN1C(=N)N)C(C)C)C(=O)N[C@H](C(=O)N[C@@H](Cc1ccc(O)cc1)C(=O)N[C@@H]1C(=O)N[C@@H](CC(N)=O)C(=O)N[C@@H](CCCNC(=N)N)C(=O)N[C@@H](CCN)C(=O)N[C@@H]([C@@H](C)O)C(=O)N[C@H](CCN)C(=O)N[C@@H](CCCCN)C(=O)N[C@H](C(=O)N[C@@H](CCN)C(=O)N[C@@H](CCCNC(=N)N)C(=O)N[C@@H](Cc2ccc(O)cc2)C(=O)O)CSSC1(C)C)[C@@H](C)O [Example 35, Gua-Hyp-Val-Hyp-Ile-Thr-Tyr-Pen-Asn-Arg-Dab-Thr-^DDab-Lys-Cys-Dab-Arg-Tyr] (HELM PEPTIDE1{[N=C(N)N1C[C@H](O)C[C@H]1C(=O)[*:2]].V.[Hyp].I.T.Y.[Pen].N.R.[Dab].T.[NCC[C@@H](N[*:1])C(=O)[*:2]].K.C.[Dab].R.Y}$PEPTIDE1,PEPTIDE1,7:R3-14:R3$$$V2.0)
- Escherichia coli ATCC 25922 MIC [1]: 0.125 mg/L
- Escherichia coli MCR-1 Af 45 MIC [2]: 0.125 mg/L
- Klebsiella pneumoniae SSI3010 MIC [3]: 0.25 mg/L
- Hemolysis at 0.2 g/L [4]: 0%

SMILES: CC[C@H](C)[C@H](NC(=O)[C@@H]1C[C@@H](N)CN1C(=O)[C@@H](NC(=O)[C@@H]1C[C@@H](O)CN1C(=N)N)C(C)C)C(=O)N[C@H](C(=O)N[C@@H](Cc1ccc(O)cc1)C(=O)N[C@@H]1C(=O)N[C@@H](CC(N)=O)C(=O)N[C@@H](CCCNC(=N)N)C(=O)N[C@@H](CCN)C(=O)N[C@@H]([C@@H](C)O)C(=O)N[C@H](CCN)C(=O)N[C@@H](CCCCN)C(=O)N[C@H](C(=O)N[C@@H](CCN)C(=O)N[C@@H](CCCNC(=N)N)C(=O)N[C@@H](Cc2ccc(O)cc2)C(=O)O)CSSC1(C)C)[C@@H](C)O [Example 36, Gua-Hyp-Val-Pro((4R)NH2)-Ile-Thr-Tyr-Pen-Asn-Arg-^Dab-Thr-^DDab-Lys-Cys-Dab-Arg-Tyr] (X2-V[Pro(4R-NH2)]ITY[Pen]NR[Dab]T[dDab]KC[Dab]RY-OH; disulfide 6-13)
- Escherichia coli ATCC 25922 MIC [1]: 0.125 mg/L
- Escherichia coli MCR-1 Af 45 MIC [2]: 0.0625 mg/L
- Klebsiella pneumoniae SSI3010 MIC [3]: 0.125 mg/L
- Hemolysis at 0.2 g/L [4]: 0%
